In BindingDB's records for doi:10.1016/j.bmc.2011.10.064 (Saitama University, 2011):
pIC50: −log10 of the molar value.

Assays:
[1] = Inhibition of Human influenza virus A/Aichi/2/68 (H3N2) hemagglutininin activity in chicken erythrocytes after 1 hr
[2] = Inhibition of Human influenza virus A/PR/8/34 (H1N1) hemagglutininin activity in chicken erythrocytes after 1 hr

SMILES | pIC50 [1] | pIC50 [2]
C=CC(=O)N[C@H]1[C@H]([C@H](O)[C@H](O)CO)O[C@@](SCCCCCCCCCCCC)(C(=O)O)C[C@@H]1O | 5.41 | 5.11
C=CC(=O)N[C@H]1[C@H]([C@H](O)[C@H](O)CO)OC(O)(C(=O)O)C[C@@H]1O (stereo partly specified) | < 3.60 | < 3.60
C=CC(=O)NCCCCCC(=O)N[C@H]1[C@H]([C@H](O)[C@H](O)CO)O[C@@](SCCCCCCCCCCCC)(C(=O)O)C[C@@H]1O | 5.11 | 5.11
